This assay concerns the target T1, mTOR (Homo sapiens, UniProt P42345).
T1 construct: FLAG; made in house
As to the kind of experiment: In Vitro mTOR Kinase Assay (Echo), Test (a)(ii). In kind it is biochemical. The following applies: table of enzyme assay Test (a)(ii); read-out: Test (a)(ii) IC50. The procedure, abridged:
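AlphaScreen read-out: biotinylated substrate phosphorylation was detected with anti-p70 S6K (T389) 1A5 antibody, Protein A acceptor and streptavidin donor beads after overnight dark incubation at room temperature. Enzyme was FLAG-mTOR 1362-2549 from stable HEK293 cells.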

For orientation: IC50 means the concentration at which inhibition is half-maximal.

T1 sequence (P42345 1362-2549): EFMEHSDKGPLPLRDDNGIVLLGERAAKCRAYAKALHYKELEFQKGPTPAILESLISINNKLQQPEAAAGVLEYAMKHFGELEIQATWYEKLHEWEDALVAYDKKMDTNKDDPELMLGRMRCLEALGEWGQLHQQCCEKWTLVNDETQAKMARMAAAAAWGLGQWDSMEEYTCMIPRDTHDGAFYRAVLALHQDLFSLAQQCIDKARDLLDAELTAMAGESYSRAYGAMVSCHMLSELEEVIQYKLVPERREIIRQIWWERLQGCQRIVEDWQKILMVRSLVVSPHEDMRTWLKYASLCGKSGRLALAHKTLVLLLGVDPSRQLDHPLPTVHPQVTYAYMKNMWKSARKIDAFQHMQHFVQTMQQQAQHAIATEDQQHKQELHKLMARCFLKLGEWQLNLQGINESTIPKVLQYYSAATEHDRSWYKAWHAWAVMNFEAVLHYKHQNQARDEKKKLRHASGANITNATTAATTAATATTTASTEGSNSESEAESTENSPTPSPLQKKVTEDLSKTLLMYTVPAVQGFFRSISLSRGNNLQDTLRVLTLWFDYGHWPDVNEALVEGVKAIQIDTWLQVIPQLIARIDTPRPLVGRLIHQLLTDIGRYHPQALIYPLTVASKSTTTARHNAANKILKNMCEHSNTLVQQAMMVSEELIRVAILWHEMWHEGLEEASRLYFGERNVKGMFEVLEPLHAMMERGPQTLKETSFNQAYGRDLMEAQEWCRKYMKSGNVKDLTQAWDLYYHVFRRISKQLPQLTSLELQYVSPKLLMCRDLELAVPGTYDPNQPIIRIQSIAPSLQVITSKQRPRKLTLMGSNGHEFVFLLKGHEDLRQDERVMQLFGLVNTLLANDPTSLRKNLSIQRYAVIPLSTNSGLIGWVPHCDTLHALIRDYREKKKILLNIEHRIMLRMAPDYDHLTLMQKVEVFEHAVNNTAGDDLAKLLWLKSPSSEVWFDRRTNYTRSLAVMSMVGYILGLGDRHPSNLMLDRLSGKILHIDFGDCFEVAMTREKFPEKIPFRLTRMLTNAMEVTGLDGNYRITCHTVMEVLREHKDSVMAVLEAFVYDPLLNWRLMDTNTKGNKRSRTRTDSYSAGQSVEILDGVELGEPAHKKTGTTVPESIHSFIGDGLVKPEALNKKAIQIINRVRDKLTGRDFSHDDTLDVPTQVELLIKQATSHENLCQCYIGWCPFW

As to `CCNC(=O)Nc1ccc(-c2nc(N3CCOC[C@@H]3C)cc(C3(S(=O)(=O)c4cn(C)nc4C)CC3)n2)cc1` [Example 55e, 3-[4-[4-[1-(1,3-dimethylpyrazol-4-yl)sulfonylcyclopropyl]-6-[(3S)-3-methylmorpholin-4-yl]pyrimidin-2-yl]phenyl]-1-ethylurea], the half-maximal inhibitory concentration (IC50) amounted to 20.4 nM.
To `Cc1nn(C)cc1S(=O)(=O)C1(c2cc(N3CCOC[C@@H]3C)nc(-c3ccc(NC(=O)Nc4cnn(C)c4)cc3)n2)CC1` [Example 55f, 1-[4-[4-[1-(1,3-dimethylpyrazol-4-yl)sulfonylcyclopropyl]-6-[(3S)-3-methylmorpholin-4-yl]pyrimidin-2-yl]phenyl]-3-(1-methylpyrazol-4-yl)urea] belongs 15.6 nM.
`O=C(Nc1ccc(-c2nc(N3CCOCC3)cc(C3(S(=O)(=O)c4ccccn4)CC3)n2)cc1)NC1CC1` [Example 56, 3-Cyclopropyl-1-[4-[4-morpholin-4-yl-6-(1-Pyridin-2-ylsulfonylcyclopropyl)pyrimidin-2-yl]phenyl]urea]: the IC50 is 2.31 nM.
For the compound `CNC(=O)Nc1ccc(-c2nc(N3CCOCC3)cc(C3(S(=O)(=O)c4ccccn4)CC3)n2)cc1` [Example 56a, 3-methyl-1-[4-[4-morpholin-4-yl-6-(1-pyridin-2-ylsulfonylcyclopropyl)pyrimidin-2-yl]phenyl]urea], the IC50 is 2.26 nM.
`CCNC(=O)Nc1ccc(-c2nc(N3CCOCC3)cc(C3(S(=O)(=O)c4ccccn4)CC3)n2)cc1` [Example 56b, 3-ethyl-1-[4-[4-morpholin-4-yl-6-(1-pyridin-2-ylsulfonylcyclopropyl)pyrimidin-2-yl]phenyl]urea]: the concentration for half-maximal inhibition (IC50) came out at 1.65 nM.
Consider `O=C(NCCO)Nc1ccc(-c2nc(N3CCOCC3)cc(C3(S(=O)(=O)c4ccccn4)CC3)n2)cc1` [Example 56c, 3-(2-hydroxyethyl)-1-[4-[4-morpholin-4-yl-6-(1-pyridin-2-ylsulfonylcyclopropyl)pyrimidin-2-yl]phenyl]urea], for which the IC50 stood at 6.23 nM.
With `Cn1cc(NC(=O)Nc2ccc(-c3nc(N4CCOCC4)cc(C4(S(=O)(=O)c5ccccn5)CC4)n3)cc2)cn1` [Example 56d, 3-(1-methylpyrazol-4-yl)-1-[4-[4-morpholin-4-yl-6-(1-pyridin-2-ylsulfonylcyclopropyl)pyrimidin-2-yl]phenyl]urea], the half-maximal inhibitory concentration (IC50) was found to be 4.3 nM.
The result for `CNC(=O)Nc1ccc(-c2nc(N3CCOC[C@@H]3C)cc(C3(S(=O)(=O)c4ccc(NC)cc4F)CC3)n2)cc1` [Example 57, 1-[4-[4-[1-(2-Fluoro-4-methylaminophenyl)sulfonylcyclopropyl]-6-[(3S)-3-methylmorpholin-4-yl]pyrimidin-2-yl]phenyl]-3-methylurea] reads 11.9 nM; that for `C[C@H]1COCCN1c1cc(C2(S(=O)(=O)c3ccc(F)cc3F)CC2)nc(-c2ccc(NC(=O)NC3CC3)cc2)n1` [Example 57a, 3-cyclopropyl-1-[4-[4-[1-(2,4-difluorophenyl)sulfonylcyclopro-pyl]-6-[(3S)-3-methylmorpholin-4-yl]pyrimidin-2-yl]phenyl]urea], 10.4 nM.
To `C[C@H]1COCCN1c1cc(C2(S(=O)(=O)c3ccc(F)cc3F)CC2)nc(-c2ccc(NC(=O)NCCF)cc2)n1` [Example 57c, 1-[4-[4-[1-(2,4-difluorophenyl)sulfonylcyclopro-pyl]-6-[(3S)-3-methylmorpholin-4-yl]pyrimidin-2-yl]phenyl]-3-(2-fluoroethyl)urea] belongs 6.95 nM.
To `CCNC(=O)Nc1ccc(-c2nc(N3CCOC[C@@H]3C)cc(C3(S(=O)(=O)c4ccc(F)cc4F)CC3)n2)cc1` [Example 57e, 3-[4-[4-[1-(2,4-difluorophenyl)sulfonylcyclopro-pyl]-6-[(3S)-3-methylmorpholin-4-yl]pyrimidin-2-yl]phenyl]-1-ethylurea] belongs 7.28 nM.

Values taken from patent US20090018134A1, “Compounds - 945” (AstraZeneca AB, priority 2007, published 2009).
